How the values were obtained:
Settings in all cases: recombinant enzyme
Cytochrome P450 3A4 [1] = biological target: T1, Cytochrome P450 3A4 (Homo sapiens, UniProt P08684); assay: (§1) Drug activation in human Hep3B cells assessed as human CYP3A4-mediated drug metabolism-induced cytotoxicity measured as decrease in cell viability at 83.8 uM pre-incubated with BSO for 18 hrs followed by incubation with compound for 3 hrs in presence of NADPH measured after 24 hrs in absence of compound, CYP3A4 and NADPH by cell titer-glo luminescence assay relative to BSO alone; type: ADME, cell-based
T1 sequence (P08684 whole entry): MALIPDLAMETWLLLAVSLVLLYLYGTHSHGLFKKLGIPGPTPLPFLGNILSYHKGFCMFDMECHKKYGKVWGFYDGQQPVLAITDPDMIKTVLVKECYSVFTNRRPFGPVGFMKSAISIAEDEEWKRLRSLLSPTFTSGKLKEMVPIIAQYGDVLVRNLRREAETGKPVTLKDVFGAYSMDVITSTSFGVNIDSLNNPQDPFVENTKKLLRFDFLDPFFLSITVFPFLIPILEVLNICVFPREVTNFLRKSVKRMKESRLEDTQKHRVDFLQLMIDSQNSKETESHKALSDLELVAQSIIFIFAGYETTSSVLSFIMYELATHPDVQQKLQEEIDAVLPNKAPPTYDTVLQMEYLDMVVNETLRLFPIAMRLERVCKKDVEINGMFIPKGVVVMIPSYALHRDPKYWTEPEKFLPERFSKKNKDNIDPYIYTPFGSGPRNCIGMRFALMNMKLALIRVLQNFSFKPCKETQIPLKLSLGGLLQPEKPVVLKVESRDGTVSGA

Cytochrome P450 2D6 [2] = biological target: T2, Cytochrome P450 2D6 (Homo sapiens, UniProt P10635); assay: as §1, with “CYP2D6-mediated” for “CYP3A4-mediated”, “193.1” for “83.8”; type: ADME, cell-based
T2 sequence (P10635 whole entry): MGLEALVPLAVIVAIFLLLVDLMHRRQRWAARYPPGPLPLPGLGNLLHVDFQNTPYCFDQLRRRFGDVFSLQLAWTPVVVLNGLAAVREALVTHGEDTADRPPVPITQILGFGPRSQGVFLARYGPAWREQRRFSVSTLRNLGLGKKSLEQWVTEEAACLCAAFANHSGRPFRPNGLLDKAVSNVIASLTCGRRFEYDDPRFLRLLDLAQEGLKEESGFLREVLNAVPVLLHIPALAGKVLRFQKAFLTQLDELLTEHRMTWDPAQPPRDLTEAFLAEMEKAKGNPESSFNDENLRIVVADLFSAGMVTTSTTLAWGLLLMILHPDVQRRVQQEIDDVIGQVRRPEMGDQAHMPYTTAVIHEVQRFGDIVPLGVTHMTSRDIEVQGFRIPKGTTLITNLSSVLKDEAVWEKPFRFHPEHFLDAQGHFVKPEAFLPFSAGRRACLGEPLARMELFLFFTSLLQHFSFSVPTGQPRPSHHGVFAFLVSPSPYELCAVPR

Cytochrome P450 2D6 [3] = biological target: T2, Cytochrome P450 2D6; assay: as §1, with “CYP2D6-mediated” for “CYP3A4-mediated”, “7” for “83.8”; type: ADME, cell-based
Cytochrome P450 2C9 [4] = biological target: T3, Cytochrome P450 2C9 (Homo sapiens, UniProt P11712); assay: as §1, with “CYP2C9-mediated” for “CYP3A4-mediated”, “300” for “83.8”
T3 sequence (P11712 whole entry): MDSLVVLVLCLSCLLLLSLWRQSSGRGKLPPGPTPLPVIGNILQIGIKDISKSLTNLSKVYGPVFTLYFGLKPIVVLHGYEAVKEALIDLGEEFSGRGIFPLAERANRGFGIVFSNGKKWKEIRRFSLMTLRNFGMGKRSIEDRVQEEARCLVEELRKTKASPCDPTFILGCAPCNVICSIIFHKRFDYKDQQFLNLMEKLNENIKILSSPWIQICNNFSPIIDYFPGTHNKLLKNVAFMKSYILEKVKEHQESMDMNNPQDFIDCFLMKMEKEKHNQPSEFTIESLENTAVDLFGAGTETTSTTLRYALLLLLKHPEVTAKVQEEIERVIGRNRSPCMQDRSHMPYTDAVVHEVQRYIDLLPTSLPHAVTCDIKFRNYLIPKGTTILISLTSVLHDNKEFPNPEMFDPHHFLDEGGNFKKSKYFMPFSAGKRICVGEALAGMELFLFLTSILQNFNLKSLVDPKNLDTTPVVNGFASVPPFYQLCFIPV

Cytochrome P450 3A4 [5] = biological target: T1, Cytochrome P450 3A4; assay: as §1, with “150.3” for “83.8”; type: ADME, cell-based
Cytochrome P450 2D6 [6] = biological target: T2, Cytochrome P450 2D6; assay: as §1, with “CYP2D6-mediated” for “CYP3A4-mediated”, “8.9” for “83.8”; type: ADME, cell-based
Cytochrome P450 3A4 [7] = biological target: T1, Cytochrome P450 3A4; assay: as §1, with “300” for “83.8”
Cytochrome P450 2C9 [8] = biological target: T3, Cytochrome P450 2C9; assay: as §1, with “CYP2C9-mediated” for “CYP3A4-mediated”, “36.8” for “83.8”; type: ADME, cell-based
Cytochrome P450 2D6 [9] = biological target: T2, Cytochrome P450 2D6; assay: as §1, with “CYP2D6-mediated” for “CYP3A4-mediated”, “44.4” for “83.8”; type: ADME, cell-based
Cytochrome P450 2D6 [10] = biological target: T2, Cytochrome P450 2D6; assay: as §1, with “CYP2D6-mediated” for “CYP3A4-mediated”, “132.2” for “83.8”; type: ADME, cell-based
Cytochrome P450 2C9 [11] = biological target: T3, Cytochrome P450 2C9; assay: as §1, with “CYP2C9-mediated” for “CYP3A4-mediated”, “139.9” for “83.8”; type: ADME, cell-based
Cytochrome P450 3A4 [12] = biological target: T1, Cytochrome P450 3A4; assay: as §1, with “131.8” for “83.8”; type: ADME, cell-based
Cytochrome P450 2C9 [13] = biological target: T3, Cytochrome P450 2C9; assay: as §1, with “CYP2C9-mediated” for “CYP3A4-mediated”, “12.1” for “83.8”; type: ADME, cell-based
Cytochrome P450 2D6 [14] = biological target: T2, Cytochrome P450 2D6; assay: as §1, with “CYP2D6-mediated” for “CYP3A4-mediated”, “3.2” for “83.8”; type: ADME, cell-based
Cytochrome P450 3A4 [15] = biological target: T1, Cytochrome P450 3A4; assay: as §1, with “83.8 uM” left out; type: ADME, cell-based
Cytochrome P450 3A4 [16] = biological target: T1, Cytochrome P450 3A4; assay: as §1, with “242.9” for “83.8”; type: ADME, cell-based
Cytochrome P450 2D6 [17] = biological target: T2, Cytochrome P450 2D6; assay: as §1, with “CYP2D6-mediated” for “CYP3A4-mediated”, “139.7” for “83.8”; type: ADME, cell-based
Cytochrome P450 3A4 [18] = biological target: T1, Cytochrome P450 3A4; assay: as §1, with “36.8” for “83.8”; type: ADME, cell-based
Cytochrome P450 2D6 [19] = biological target: T2, Cytochrome P450 2D6; assay: as §1, with “CYP2D6-mediated” for “CYP3A4-mediated”, “194” for “83.8”; type: ADME, cell-based
Cytochrome P450 2D6 [20] = biological target: T2, Cytochrome P450 2D6; assay: as §1, with “CYP2D6-mediated” for “CYP3A4-mediated”, “156.7” for “83.8”; type: ADME, cell-based
Cytochrome P450 3A4 [21] = biological target: T1, Cytochrome P450 3A4; assay: as §1, with “209.7” for “83.8”; type: ADME, cell-based
Cytochrome P450 3A4 [22] = biological target: T1, Cytochrome P450 3A4; assay: as §1, with “68” for “83.8”; type: ADME, cell-based
Cytochrome P450 2D6 [23] = biological target: T2, Cytochrome P450 2D6; assay: as §1, with “CYP2D6-mediated” for “CYP3A4-mediated”, “80.4” for “83.8”; type: ADME, cell-based
Cytochrome P450 2C9 [24] = biological target: T3, Cytochrome P450 2C9; assay: as §1, with “CYP2C9-mediated” for “CYP3A4-mediated”, “70.1” for “83.8”; type: ADME, cell-based
Cytochrome P450 2D6 [25] = biological target: T2, Cytochrome P450 2D6; assay: as §1, with “CYP2D6-mediated” for “CYP3A4-mediated”, “114.4” for “83.8”; type: ADME, cell-based
Cytochrome P450 3A4 [26] = biological target: T1, Cytochrome P450 3A4; assay: as §1, with “137.9” for “83.8”; type: ADME, cell-based
Cytochrome P450 2D6 [27] = biological target: T2, Cytochrome P450 2D6; assay: as §1, with “CYP2D6-mediated” for “CYP3A4-mediated”, “300” for “83.8”
Cytochrome P450 3A4 [28] = biological target: T1, Cytochrome P450 3A4; assay: as §1, with “6.5” for “83.8”; type: ADME, cell-based

## OC(CCN1CCCCC1)(c1ccccc1)C1CC2C=CC1C2 (centres undefined) [BIPERIDEN]
Cytochrome P450 3A4 [1]
  fold change (FC): 3.6
Cytochrome P450 2D6 [2]
  fold change (FC): 1.6

## CN(C)CCC(c1ccc(Br)cc1)c1ccccn1 (centres undefined) [BROMPHENIRAMINE]
Cytochrome P450 2D6 [3]
  fold change (FC): 43
Cytochrome P450 2C9 [4]
  FC: 1
Cytochrome P450 3A4 [5]
  fold change (FC): 2

## CN(C)CCC(c1ccc(Cl)cc1)c1ccccn1 (centres undefined) [CHLORPHENIRAMINE]
Cytochrome P450 2D6 [6]
  fold change (FC): 33.6
Cytochrome P450 3A4 [7]
  FC: 1
Cytochrome P450 2C9 [4]
  FC: 1

## Clc1ccccc1C(c1ccccc1)(c1ccccc1)n1ccnc1 [CLOTRIMAZOLE]
Cytochrome P450 2C9 [8]
  fold change (FC): 1.1
Cytochrome P450 2D6 [9]
  fold change (FC): 0.9

## CNCCCN1c2ccccc2CCc2ccccc21 [DESIPRAMINE]
Cytochrome P450 2D6 [10]
  fold change (FC): 0.7
Cytochrome P450 2C9 [11]
  fold change (FC): 0.7
Cytochrome P450 3A4 [12]
  fold change (FC): 0.7

## C=C(CC)C(=O)c1ccc(OCC(=O)O)c(Cl)c1Cl [ETHACRYNIC ACID]
Cytochrome P450 2C9 [13]
  fold change (FC): 0.7
Cytochrome P450 2D6 [14]
  fold change (FC): 2.7
Cytochrome P450 3A4 [15]
  FC: 3.7

## Cc1nc(-c2ccc(OCC(C)C)c(C#N)c2)sc1C(=O)O [FEBUXOSTAT]
Cytochrome P450 3A4 [16]
  fold change (FC): 1.2
Cytochrome P450 2C9 [4]
  FC: 1
Cytochrome P450 2D6 [17]
  fold change (FC): 2.1

## CC(C)OC(=O)C(C)(C)Oc1ccc(C(=O)c2ccc(Cl)cc2)cc1 [FENOFIBRATE]
Cytochrome P450 3A4 [18]
  fold change (FC): 2.9
Cytochrome P450 2C9 [11]
  fold change (FC): 0.8
Cytochrome P450 2D6 [19]
  fold change (FC): 0.5

## O=C(COc1ccc(Cl)cc1)N1CCN(Cc2ccc3c(c2)OCO3)CC1 [FIPEXIDE]
Cytochrome P450 2D6 [20]
  fold change (FC): 0.8
Cytochrome P450 3A4 [21]
  fold change (FC): 0.6
Cytochrome P450 2C9 [4]
  FC: 0.4

## CNCCC(Oc1ccc(C(F)(F)F)cc1)c1ccccc1 (centres undefined) [FLUOXETINE]
Cytochrome P450 3A4 [22]
  fold change (FC): 0.7
Cytochrome P450 2D6 [23]
  fold change (FC): 0.6
Cytochrome P450 2C9 [24]
  fold change (FC): 0.7

## CC(C)NNC(=O)c1ccncc1 [IPRONIAZID]
Cytochrome P450 2D6 [25]
  fold change (FC): 2.6
Cytochrome P450 3A4 [26]
  fold change (FC): 2.2
Cytochrome P450 2C9 [4]
  FC: 1

## CC(CCc1ccccc1)NCC(O)c1ccc(O)c(C(N)=O)c1 (centres undefined) [LABETALOL]
Cytochrome P450 2D6 [27]
  FC: 1
Cytochrome P450 3A4 [28]
  fold change (FC): 46
Cytochrome P450 2C9 [4]
  FC: 1
